Measurements as given in patent US10375956B2, “Herbicidally active 2-(substituted-phenyl)-cyclopentane-1,3-dione compounds and derivatives thereof” (Syngenta Limited, priority 2013, dated 2019).
Where two headings read alike, the source gives them in different places.

How the values were obtained:
Experiment in all cases: Test 1 glasshouse assay, post-emergence herbicidal activity
Type in all cases: in vivo
Setaria faberi (SETFA) = settings: 312 h, post-emergence (Example 1B Table 1), after 13 days, read-out: Percentage phytotoxicity SETFA
Method: (§1) Seeds of a variety of test species are sown in standard soil in pots. After cultivation for one day (pre-emergence) or after 8 days cultivation (post-emergence) under controlled conditions in a glasshouse (at 24/16° C., day/night; 14 hours light; 65% humidity), the plants are sprayed with an aqueous spray solution derived from the formulation of the “technical” (i.e. unformulated) active ingredient in acetone/water (50:50) solution containing 0.5% Tween 20 (polyoxyethylene sorbitan monolaurate, CAS Registry Number 9005-64-5). The test plants are then grown on under controlled conditions in a glasshouse (at 24/16° C., day/night; 14 hours light; 65% humidity) and watered twice daily. After 13 days for pre- or post-emergence, the test is evaluated visually, and an assessed percentage phytotoxicity score is given for each herbicidal application on each plant species (where 100%=total damage to plant; 0%=no damage to plant).
(§2) Test plants include the following: Abutilon theophrasti (ABUTH) and Amaranthus retroflexus (AMARE); these are all dicotyledonous (broadleaved) weeds. Setaria faberi (SETFA), Alopecurus myosuroides (ALOMY), and Echinochloa crus-galli (ECHCG); these are all grassy monocotyledonous weeds. Also: Zea mays (ZEAMX, corn/maize), which can be a grassy weed (“volunteer” corn) in some circumstances.

[1] = test system: Amaranthus retroflexus (AMARE); settings: 312 h, post-emergence (Example 1B Table 1), after 13 days, read-out: Percentage phytotoxicity AMARE
Method: as §1, §2

[2] = test system: Alopecurus myosuroides (ALOMY); settings: 312 h, after 13 days, read-out: Percentage phytotoxicity ALOMY
Summary of the method: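 Plants sprayed 8 days after sowing with active ingredient in acetone/water (50:50) containing 0.5% Tween 20, grown in glasshouse at 24/16°C day/night, 14 h light, 65% humidity. Phytotoxicity scored visually after 13 days as percentage damage (100% = total damage; 0% = none).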

[3] = test system: Abutilon theophrasti (ABUTH); settings: 312 h, post-emergence (Example 1B Table 1), after 13 days, read-out: Percentage phytotoxicity ABUTH
Method: as §1, §2

[4] = test system: Zea mays (ZEAMX, corn/maize); settings: 312 h, post-emergence (Example 1B Table 1), after 13 days, read-out: Percentage phytotoxicity ZEAMX
Method: as §1, §2

Lolium perenne (LOLPE) = settings: 312 h, post-emergence (Example 1B Table 2), after 13 days, read-out: Percentage phytotoxicity LOLPE
Method: as §1
(§3) Lolium perenne (LOLPE), Alopecurus myosuroides (ALOMY), Echinochloa crus-galli (ECHCG), and Avena fatua (AVEFA); these are all grassy monocotyledonous weeds. Cool climate crop plant: Triticum aestivum (TRZAW, winter wheat).

Avena fatua (AVEFA) = settings: 312 h, post-emergence (Example 1B Table 2), after 13 days, read-out: Percentage phytotoxicity AVEFA
Method: as §1, §3

[5] = test system: Triticum aestivum (TRZAW, winter wheat); settings: 312 h, post-emergence (Example 1B Table 2), after 13 days, crop plant, read-out: Percentage phytotoxicity TRZAW
Method: as §1, §3

[6] = post-emergence (Example 1B Table 1)
[7] = post-emergence (Example 1B Table 2)

Row | Structure (SMILES) | pest or weed control at 250 g/ha (Setaria faberi (SETFA)) | pest or weed control at 250 g/ha [1] | pest or weed control at 250 g/ha [2, 6] | pest or weed control at 30 g/ha (Setaria faberi (SETFA)) | pest or weed control at 30 g/ha [3] | pest or weed control at 250 g/ha [3] | pest or weed control at 30 g/ha [1] | pest or weed control at 30 g/ha [4] | pest or weed control at 250 g/ha [4] | pest or weed control at 30 g/ha [2, 6] | pest or weed control at 62.5 g/ha (Lolium perenne (LOLPE)) | pest or weed control at 250 g/ha (Lolium perenne (LOLPE)) | pest or weed control at 62.5 g/ha (Avena fatua (AVEFA)) | pest or weed control at 250 g/ha (Avena fatua (AVEFA)) | plant injury at 62.5 g/ha [5] | plant injury at 250 g/ha [5] | pest or weed control at 62.5 g/ha [2, 7] | pest or weed control at 250 g/ha [2, 7] | other results
1 | C#CCC1CC(=O)C(c2c(C)cc(-c3ccc(F)cc3)cc2C)C1=O (stereo not drawn) [Compound A1, 2-[4-(4-fluorophenyl)-2,6-dimethyl-phenyl]-4-prop-2-ynylcyclopentane-1,3-dione] | 100% | 70% | 100% |  |  |  |  |  |  |  |  |  |  |  |  |  |  |  | pest or weed control at 62.5 g/ha (Setaria faberi (SETFA)): 90%; pest or weed control at 62.5 g/ha [1]: 30%; pest or weed control at 62.5 g/ha [2, 6]: 90%
2 | C#CCC1CC(OC(C)=O)=C(c2c(C)cc(-c3ccc(F)cc3)cc2C)C1=O (stereo not drawn) [Compound A45] | 100% | 80% | 100% |  |  |  |  |  |  |  |  |  |  |  |  |  |  |  | pest or weed control at 62.5 g/ha (Setaria faberi (SETFA)): 90%; pest or weed control at 62.5 g/ha [1]: 20%; pest or weed control at 62.5 g/ha [2, 6]: 90%
3 | C#CCC1CC(=O)C(c2cc(-c3ncc(Cl)cn3)ccc2C)C1=O (stereo not drawn) [Compound A19] | 90% | 20% | 60% | 70% | 0% | 30% | 0% | 40% | 30% | 10% |  |  |  |  |  |  |  |  | 
4 | C#CCC1CC(=O)C(c2c(CC)cc(C)cc2CC)C1=O (stereo not drawn) [Compound A25, 2-(2,6-diethyl-4-methyl-phenyl)-4-(prop-2-ynyl)-cyclopentane-1,3-dione] |  |  |  |  |  |  |  |  |  |  | 100% | 100% | 100% | 100% | 30% | 60% | 90% | 100% | 
5 | C#CCC1CC(=O)C(c2c(F)cc(-c3ccc(Cl)cc3)cc2Cl)C1=O (stereo not drawn) [Compound A6, 2-[2-chloro-4-(4-chlorophenyl)-6-fluorophenyl]-4-prop-2-ynylcyclopentane-1,3-dione] | 100% | 70% | 100% | 100% | 40% | 70% | 60% | 100% | 100% | 80% |  | 80% |  | 90% |  | 80% |  | 100% | 
6 | C#CCC1CC(=O)C(c2cc(-c3ncc(Cl)cc3F)ccc2C)C1=O (stereo not drawn) [Compound A18] | 80% | 60% | 70% | 60% | 0% | 60% | 0% | 60% | 80% | 10% |  |  |  |  |  |  |  |  | 
7 | C#CCC1CC(=O)C(c2c(F)cc(-c3ccc(F)c(F)c3)cc2OC)C1=O (stereo not drawn) [Compound A22] | 100% | 80% | 100% | 90% | 0% | 40% | 10% | 100% | 100% | 70% |  |  |  |  |  |  |  |  | 
8 | C#CCC1CC(=O)C(c2c(Cl)cc(-c3ccc(F)c(F)c3)cc2OC)C1=O (stereo not drawn) [Compound A13] | 100% | 90% | 100% | 100% | 70% | 80% | 60% | 100% | 100% | 90% | 90% | 100% | 100% | 100% | 80% | 80% | 100% | 100% | 
9 | C#CCC1CC(=O)C(c2c(Cl)cc(-c3ccc(Cl)cn3)cc2OC)C1=O (stereo not drawn) [Compound A10] | 100% | 80% | 100% | 100% | 80% | 80% | 80% | 100% | 100% | 90% | 100% | 100% | 100% | 100% | 90% | 90% | 100% | 100% | 
10 | C#CCC1CC(=O)C(c2c(C)cc(C)cc2C)C1=O (stereo not drawn) [Compound A23] |  |  |  |  |  |  |  |  |  |  | 90% | 100% | 90% | 90% | 50% | 70% | 90% | 100% | 
11 | C#CCC1C(=O)C(c2c(C)cc(C)cc2C)C(=O)C1CC#C (stereo not drawn) [Compound A42] |  |  |  |  |  |  |  |  |  |  |  | 100% |  | 80% |  | 20% |  | 90% | 
12 | C#CCC1CC(=O)C(c2c(C)cc(-c3ncc(Cl)cc3F)cc2C)C1=O (stereo not drawn) [Compound A3] | 100% | 90% | 100% |  |  | 90% |  |  | 100% |  | 100% | 100% | 90% | 100% | 90% | 90% | 100% | 100% | pest or weed control at 62.5 g/ha (Setaria faberi (SETFA)): 100%; pest or weed control at 62.5 g/ha ([3]; 62.5 g/ha): 80%; pest or weed control at 62.5 g/ha [1]: 60%; pest or weed control at 62.5 g/ha ([4]; 62.5 g/ha): 100%; pest or weed control at 62.5 g/ha [2, 6]: 100%
13 | C#CCC1CC(=O)C(c2cc(-c3ccc(Cl)cc3Cl)ccc2C)C1=O (stereo not drawn) [Compound A15] | 70% | 40% | 10% |  |  | 60% |  |  | 80% |  |  |  |  |  |  |  |  |  | 
